Read-outs that look alike come from different tables or passages of the source.
Legend:
Assay in all cases: Ras GTP binding domain inhibition assay (labeled GTP)
[1] = molecular target: KRas G12D mutant protein (Homo sapiens (Human), UniProt P01116, G12D)
[2] = molecular target: KRas G12C mutant (Homo sapiens (Human), UniProt P01116, G12C)
Outline: (§1)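 Inhibition of labeled GTP binding is measured on immobilized His-KRas protein in Tris buffer pH 7.5 with 1 mM MgCl2 and 1 mM DTT.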

[3] = molecular target: KRas G12D/Q61H double mutant (Homo sapiens (Human), UniProt P01116, G12D/Q61H)
Outline: as §1

[4] = molecular target: KRas wild type (Homo sapiens (Human), UniProt P01116)
Outline: as §1

[5] = 20 μM, read-out: KRas G12D % Inh.
[6] = 20 μM, read-out: KRas G12C % Inh.
[7] = 20 μM, read-out: KRas G12D Q61H % Inh.
[8] = 20 μM, read-out: KRas wild type, % Inh.
[9] = 20 μM compound, read-out: % Inhibition at 20 μM KRas G12D
[10] = 20 μM compound, read-out: % Inhibition at 20 μM KRas G12C
[11] = 20 μM compound, read-out: % Inhibition at 20 μM KRas G12D Q61H
[12] = 20 μM compound, read-out: % Inhibition at 20 μM KRas wild type

KRas G12D mutant protein, sequence (P01116-2 other isoform, or with tags, fused parts or gaps G12D): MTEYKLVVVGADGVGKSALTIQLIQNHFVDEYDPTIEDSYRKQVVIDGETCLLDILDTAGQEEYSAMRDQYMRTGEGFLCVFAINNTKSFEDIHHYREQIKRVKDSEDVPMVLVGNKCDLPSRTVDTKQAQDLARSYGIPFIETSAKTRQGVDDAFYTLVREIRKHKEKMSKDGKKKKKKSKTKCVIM
KRas G12D/Q61H double mutant, sequence (P01116-2 other isoform, or with tags, fused parts or gaps G12D/Q61H): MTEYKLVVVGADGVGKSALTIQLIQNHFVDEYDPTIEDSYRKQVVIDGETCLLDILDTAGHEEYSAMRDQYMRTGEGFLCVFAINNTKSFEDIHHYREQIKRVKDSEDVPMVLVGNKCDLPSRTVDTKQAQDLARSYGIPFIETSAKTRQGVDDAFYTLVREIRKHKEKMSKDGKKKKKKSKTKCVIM
KRas G12C mutant, sequence (P01116-2 other isoform, or with tags, fused parts or gaps G12C): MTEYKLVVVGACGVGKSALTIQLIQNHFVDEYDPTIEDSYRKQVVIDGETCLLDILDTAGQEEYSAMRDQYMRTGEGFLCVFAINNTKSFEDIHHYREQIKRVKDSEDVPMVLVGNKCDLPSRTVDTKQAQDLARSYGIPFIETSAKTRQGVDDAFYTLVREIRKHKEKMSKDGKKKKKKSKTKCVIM
KRas wild type, sequence (P01116-2 other isoform, or with tags, fused parts or gaps): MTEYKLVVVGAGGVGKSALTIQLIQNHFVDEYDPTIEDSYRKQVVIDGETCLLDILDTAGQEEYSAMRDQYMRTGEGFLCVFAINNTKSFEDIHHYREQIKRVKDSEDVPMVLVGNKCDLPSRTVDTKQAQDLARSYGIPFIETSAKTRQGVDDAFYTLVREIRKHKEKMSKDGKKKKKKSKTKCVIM

SMILES	inhibition at 20 µM [1, 5]	inhibition at 20 µM [2, 6]	inhibition at 20 µM [3, 7]	inhibition at 20 µM [4, 8]	inhibition at 20 µM [1, 9]	inhibition at 20 µM [2, 10]	inhibition at 20 µM [3, 11]	inhibition at 20 µM [4, 12]	further results
O=C(Nc1nc(-c2ccccn2)cs1)c1cccc(F)c1 [drawing 2567]	51 to 75%	25 to 50%	51 to 75%	51 to 75%	–	–	–	–	–
O=c1nc(-c2ccccn2)[nH]c2scc(-c3ccccc3Cl)c12 [drawing 2585]	51 to 75%	25 to 50%	51 to 75%	25 to 50%	–	–	–	–	–
CC1(N)CCN(C(=O)c2csc3c(O)nc(-c4ccccn4)nc23)CC1 [drawing 2684]	–	–	–	–	51 to 75%	76 to 100%	76 to 100%	25 to 50%	–
COC(=O)c1cccc(CN2CCC(CSc3ccccc3)C2)c1C#N (stereo not drawn) [drawing 2611]	1 to 25%	25 to 50%	25 to 50%	1 to 25%	–	–	–	–	–
O=C(OCCc1ccccc1)N1CCCc2c(O)nc(-c3ccccn3)nc21 [drawing 2653]	–	–	–	–	51 to 75%	25 to 50%	76 to 100%	51 to 75%	–
O=C(Nc1nc(-c2ccccn2)cs1)c1ccccn1 [drawing 2573]	51 to 75%	51 to 75%	76 to 100%	51 to 75%	–	–	–	–	–
COCCC(C)Nc1nc(-c2ccccn2)nc2sccc12 (stereo not drawn) [drawing 2709]	–	–	–	–	51 to 75%	25 to 50%	25 to 50%	1 to 25%	–
NC(=O)C1(CNc2nc(-c3ccccn3)nc3c2CCC3)CCCC1 [drawing 2608]	51 to 75%	25 to 50%	51 to 75%	25 to 50%	–	–	–	–	–
O=C(c1csc2c(O)nc(-c3ccccn3)nc12)N1CCC(N2CCCC2=O)CC1 [drawing 2679]	–	–	–	–	51 to 75%	51 to 75%	51 to 75%	51 to 75%	–
O=C(Nc1nc(-c2ccccn2)cs1)c1ccncc1 [drawing 2578]	51 to 75%	51 to 75%	51 to 75%	51 to 75%	–	–	–	–	–
O=C(NCCc1cccnc1)c1csc2c(O)nc(-c3ccccn3)nc12 [drawing 2689]	–	–	–	–	51 to 75%	25 to 50%	51 to 75%	76 to 100%	–
Oc1nc(-c2ccccn2)nc2c(Br)csc12 [drawing 2673]	–	–	–	–	25 to 50%	25 to 50%	51 to 75%	25 to 50%	–
O=C(c1csc2c(O)nc(-c3ccccn3)nc12)N1CCC(c2cccnc2)CC1 [drawing 2682]	–	–	–	–	51 to 75%	25 to 50%	51 to 75%	76 to 100%	–
O=C(c1csc2c(O)nc(-c3ccccn3)nc12)N(CCO)CCOCCO [drawing 2687]	–	–	–	–	51 to 75%	51 to 75%	76 to 100%	25 to 50%	–
O=C(OCCc1cccnc1)N1CCCc2c(O)nc(-c3ccccn3)nc21	–	–	–	–	51 to 75%	51 to 75%	51 to 75%	25 to 50%	–
COCCNc1nc(-c2nccn2C)nc2sc(-c3ccccc3)c(-c3ccccc3)c12 [drawing 3535]	–	–	–	–	–	–	–	–	inhibition at 20 µM ([1]; 20 μM compound, KRas G12D, read-out: % Inhibition at 20 μM of K-Ras mutant and wild-type protein, KRas G12D): 76 to 100%; inhibition at 20 µM ([2]; 20 μM compound, KRas G12C, read-out: % Inhibition at 20 μM of K-Ras mutant and wild-type protein, KRas G12C): 51 to 75%; inhibition at 20 µM ([3]; 20 μM compound, KRas G12D/Q61H double mutant, read-out: % Inhibition at 20 μM of K-Ras mutant and wild-type protein, KRas G12D Q61H): 51 to 75%; inhibition at 20 µM ([4]; 20 μM compound, KRas wild type, read-out: % Inhibition at 20 μM of K-Ras mutant and wild-type protein, KRas wild type): 1 to 25%
Cc1cnc(-c2ccccn2)nc1NC(=O)COCc1ccncc1	–	–	–	–	51 to 75%	51 to 75%	51 to 75%	51 to 75%	–
Cc1cc2c(=O)nc(-c3cc(OCC(F)F)ccn3)[nH]c2s1 [drawing 2593]	51 to 75%	25 to 50%	76 to 100%	25 to 50%	–	–	–	–	–

More lines, main results first:

inhibition at 20 µM [1, 5]	inhibition at 20 µM [2, 6]	inhibition at 20 µM [3, 7]	inhibition at 20 µM [4, 8]	inhibition at 20 µM [1, 9]	inhibition at 20 µM [2, 10]	inhibition at 20 µM [3, 11]	inhibition at 20 µM [4, 12]	SMILES	further results
76 to 100%	25 to 50%	76 to 100%	51 to 75%	–	–	–	–	O=C(Nc1nnc(-c2ccccn2)[nH]1)c1ccc2ccccc2n1 [drawing 2472]	–
51 to 75%	25 to 50%	76 to 100%	25 to 50%	–	–	–	–	O=C(c1ccn(-c2ccccc2)n1)N1CCCc2c(O)nc(-c3ccccn3)nc21 [drawing 2644]	–
76 to 100%	51 to 75%	51 to 75%	51 to 75%	–	–	–	–	COc1ccc(C(=O)Nc2nc(-c3ccccn3)cs2)cn1 [drawing 2581]	–
–	–	–	–	51 to 75%	51 to 75%	25 to 50%	25 to 50%	c1ccc(-c2nc(NCC3CCCO3)c3ccsc3n2)nc1 (stereo not drawn) [drawing 2705]	–
–	–	–	–	51 to 75%	25 to 50%	51 to 75%	51 to 75%	O=C(c1csc2c(O)nc(-c3ccccn3)nc12)N1CCN(c2ccncc2)CC1 [drawing 2681]	–
1 to 25%	25 to 50%	51 to 75%	1 to 25%	–	–	–	–	CS(=O)(=O)Cc1ccc(C(=O)Nc2nc(-c3ccccn3)cs2)cc1 [drawing 2572]	–
25 to 50%	25 to 50%	51 to 75%	25 to 50%	–	–	–	–	OCCOCCNc1nc(-c2ccccn2)nc2scc(-c3ccccc3)c12 [drawing 2609]	–
–	–	–	–	51 to 75%	25 to 50%	25 to 50%	51 to 75%	CC1(O)CCN(C(=O)c2csc3c(O)nc(-c4ccccn4)nc23)CC1 [drawing 2683]	–
51 to 75%	1 to 25%	51 to 75%	25 to 50%	–	–	–	–	CC(O)CNc1nc(-c2ccccn2)nc2scc(-c3ccccc3)c12 (stereo not drawn) [drawing 2607]	–
–	–	–	–	51 to 75%	25 to 50%	25 to 50%	76 to 100%	O=C(c1csc2c(O)nc(-c3ccccn3)nc12)N1CCOC(c2ccccc2F)C1 (stereo not drawn)	–
51 to 75%	25 to 50%	51 to 75%	25 to 50%	–	–	–	–	O=c1nc(-c2ccccn2)[nH]c2c1CCC2 [drawing 2591]	–
51 to 75%	25 to 50%	76 to 100%	51 to 75%	–	–	–	–	CS(=O)(=O)N1CCCc2cc(C(=O)Nc3nnc(-c4ccccn4)[nH]3)ccc21 [drawing 2561]	–
25 to 50%	51 to 75%	51 to 75%	25 to 50%	–	–	–	–	COc1ccc(CCC(=O)N2CCCc3c(O)nc(-c4ccccn4)nc32)cc1 [drawing 2640]	–
51 to 75%	1 to 25%	51 to 75%	25 to 50%	–	–	–	–	O=C(Nc1nnc(-c2ccccn2)[nH]1)C1CC(=O)N(Cc2cccc(C(F)(F)F)c2)C1 (stereo not drawn) [drawing 2547]	–
25 to 50%	25 to 50%	51 to 75%	25 to 50%	–	–	–	–	COc1ccc(CCC(=O)Nc2nnc(-c3ccccn3)[nH]2)cc1 [drawing 2469]	–
51 to 75%	25 to 50%	51 to 75%	1 to 25%	–	–	–	–	COC(=O)c1cc(NCc2nc(CC(C)C)no2)ccc1Cl [drawing 2612]	–
51 to 75%	25 to 50%	51 to 75%	25 to 50%	–	–	–	–	Cc1cccc(CN(Cc2ccccn2)Cc2nccn2C)c1 [drawing 2613]	–
51 to 75%	51 to 75%	76 to 100%	25 to 50%	–	–	–	–	O=C(c1ccc2ccccc2n1)N1CCCc2c(O)nc(-c3ccccn3)nc21 [drawing 2642]	–
–	–	–	–	51 to 75%	25 to 50%	51 to 75%	51 to 75%	Oc1nc(-c2ccccn2)nc2c1ncn2-c1ccccc1 [drawing 2697]	–
25 to 50%	25 to 50%	76 to 100%	25 to 50%	–	–	–	–	Cc1cc(C(=O)Nc2nc(-c3ccccn3)cs2)no1 [drawing 2568]	–
–	–	–	–	25 to 50%	25 to 50%	25 to 50%	1 to 25%	O=C(c1csc2c(O)nc(-c3ccccn3)nc12)N1CCN(c2ccccc2O)CC1	–
–	–	–	–	25 to 50%	25 to 50%	51 to 75%	25 to 50%	O=C(c1ccccn1)N1CCCc2c(O)nc(-c3ccccn3)nc21 [drawing 2655]	–
51 to 75%	51 to 75%	51 to 75%	25 to 50%	–	–	–	–	Cc1sc2nc(-c3ccccn3)nc(NCCCO)c2c1-c1ccccc1 [drawing 2610]	–
51 to 75%	25 to 50%	51 to 75%	25 to 50%	–	–	–	–	COCC(C)Nc1nc(-c2ccccn2)nc2sc(C)c(-c3ccccc3)c12 (stereo not drawn) [drawing 2604]	–

Reference: patent US10940139B2, “Compounds that interact with the Ras superfamily for the treatment of cancers, inflammatory diseases, rasopathies, and fibrotic disease” (Shy Therapeutics LLC, priority 2017, dated 2021)
